Results as given in US8334267B2, “Mangiferin calcium salts, the method for its preparation and its use” (Hainan Deze Drug Research Co., Ltd., priority 2007, dated 2012).

Tests used:
[1] = Water solubility test in distilled water; settings: for dissolves in 30 minutes: prepared per example 8
Method: 5 mg mangiferin powder which is weighed up accurately is put into 50 ml distilled water, the solution is shaked acutely 30 second every 5 minutes.
100 mg mangiferin calcium powder which is obtained by the method for preparation of example 8 and weighed up accurately is put into 50 ml distilled water, the solution is shaked acutely 30 second every 5 minutes.

[2] = test system: STZ rats; assay: Efficacy in STZ model (plasma glucose, insulin, lipids, glucose clamp); type: in vivo, wistar rats; settings: for Glucose infusion rate: glucose clamp; for FFA / GLU / INS / TG: high fat chow
Method: Rosiglitazone Hydrochloride tablets were purchased from Zhejiang wanma pharmaceutical Co., Ltd. Mangiferin and mangiferin calcium salts were suspended with 3% sodium carboxymethyl cellulose.
Normal female wistar rats (SPF, 3 months age, 180-200 g) were purchased from Hainan provincial peoples hospital experimental Animal Center. The animals were kept in a room temperature (25˜28° C.) with free access of food and water. A light-dark cycle (6 a.m and 6 p.m) was strictly enforced. High fat chow is composed of 55% basic chow, 2% protein, 16% fat, 27% white sugar.
Model: After the rats were fasted for 12 hours, the rats are injected 30-35 mg/kg streptozotocin (STZ) solution once by tail vein. STZ solution is prepared to 2% concentration with […], pH 4.4 citrate-sodium citrate buffer before use. The model rats were weighed, taked out tail vein blood, tested blood glucose when the Model is done after 14 days after fasting for 12 hours, then injected 20% glucose solution ([…]) by intraperitoneal, determined blood glucose in 0.5 h, 1 h, 2 h. The rats whose glucose tolerance is abnormal were brought into experiments. Normal wistar rats were fed normal chow, model rats were fed high fat chow.
Experimental group:normal wistar rats group (n=10); after Diabetes model is succeed, the rats were randomly divided into 7 groups: Diabetes model group (n=10); mangiferin groups (20, 40, 80 mg/kg, each 10 rats); mangiferin calcium groups (10, 20, 40 mg/kg, each 10 rats); Rosiglitazone Hydrochloride group [3 mg/kg, n=10]. Test samples or vehicle control was given orally for 8 weeks. Diabetes model group and normal group were given vehicle.
Determination of insulin sensitivity (Glucose infusion rate): Using glucose clamp technique, in accordance with Konglingdong'method ? KONG Ling-dong, ZHU Liang-zheng, SONG Ju-min, etc al. Intervention Effects of Tiaozhi Jiangtang Tablet on Insulin Resistance in Rats with Diabetes Mellitus Type 2.
Determination of plasma glucose and lipid: Rats were taken whole blood after killed, then serum was separated, determined plasma glucose (GLU), insulin (INS), triglycerides (TG) and free fatty acids (FFA).
GLU and TG levels were determined using GF-D800 semi-auto chemist which was purchased from Shandong Gaomi Caihong Analytical Instrument Co., Ltd. Free fatty acids were determined using copper colorimetric determination. The kits for Determination of free fatty acids were purchased from Nanjing Jiancheng Bioengineering Institute. Insulin: radioimmunoassay (RIA), γ counter counts. insulin RIA Kit was purchased from Shandong Weifang City three-dimensional (3V) Biological company.
Statistics: The results have been calculated as mean±SD ( x±SD) and compareisons of the data have been done by t-test.

[3] = test system: GK rats; assay: Efficacy in GK model (plasma glucose, insulin, lipids); type: in vivo, Goto-Kakizaki rats (GK)
Method: Rosiglitazone Hydrochloride tablets were purchased from Zhejiang wanma pharmaceutical Co., Ltd. Mangiferin and mangiferin calcium were suspended with 3% sodium carboxymethyl cellulose before use.
Goto-Kakizaki rats (GK) (16 weeks age, ♀ ♂) were purchased from Shanghai SLAC laboratory animal Co., Ltd. The animals were kept in IVC cages with temperature (22° C.). There are two rats in each cage.
Experimental group: GK rats group (n=10); mangiferin groups (20, 40, 80 mg/kg, each 10 rats); mangiferin calcium groups (10, 20, 40 mg/kg, each 10 rats); Rosiglitazone Hydrochloride group [3 mg/kg, n=10]. Test samples or vehicle control was given orally for 30 days. GK rats group were given vehicle.
The blood specimens were taken by abdominal aorta at the end of the test. Plasma glucose (GLU), insulin (INS), triglycerides (TG), total cholesterol (TC), high density lipoprotein (HDL), low density lipoprotein (LDL) were determined
GLU, TC, TG, HDL and LDL levels were determined using GF-D800 semi-auto chemist which was purchased from Shandong Gaomi Caihong Analytical Instrument Co., Ltd. Insulin: radioimmunoassay (RIA), γ counter counts. insulin RIA Kit was purchased from Shandong Weifang City three-dimensional (3V) Biological company.
Statistics: The results have been calculated as mean±SD ( x±SD) and comparisons of the data have been done by t-test.

[4] = Stability of mangiferin calcium by preparation route; type: physicochemical; settings: mangiferin calcium made by reacting mangiferin with calcium hydroxide; changes much in 2 hours
Method: 3, The water solution of mangiferin calcium which mangiferin reacted with calcium hydroxide is unstable, it changes much in 2 hours. The reaction of mangiferin with other alkaline calcium like calcium bicarbonate or calcium acetate is difficult because they are alkalescent. The productivity is very low.
5, Mangiferin monosodium (or monopotassium) is come into being first; then mangiferin monosodium (or monopotassium) reacts with water-solubility calcium salt, and mangiferin calcium is come into being. The mangiferin calcium which is obtained by this method is stability, and the productivity is high.

[5] = Pharmacokinetics of mangiferin and mangiferin calcium after oral administration; type: in vivo, rats; settings: rats, oral 100 mg/kg
Method: 1, The Confect of Drug Solution
Mangiferin is suspended in Carboxymethyl cellulose sodium solution which concentration is one percent; the mangiferin concentration is 10 mg/mL, which is sample A.
All rats were fasted for 16 hours, free drinking water. The rats are oral administrated separately sample A and sample B, which dose is 100 mg/kg. The rats were taken whole blood in 5 minutes before oral administrated and 15 min, 30 min, 45 min, 60 min, 90 min, 120 min, 180 min, 240 min, 300 min, 360 min, 480 min after oral administrated. Serum is separated from these blood samples.
Serum Samples are extracted accurately 0.2 ml into centrifuge tubes separately; then 40 μL cold trichloroacetic acid solution which concentration is ten percent is added into centrifuge tubes separately. The samples are whorled 3 minutes; then centrifuged 12000 r/min for 10 minutes, 120 μl the up layer solution are extracted from centrifuge tubes and put into sample bottles separately. All the samples are detected by HPLC.
Apparatus: Angilent 1100 HPLC (American Agilent Co.), include G1312A dual pump G1313A Auto-Sampler.
Chromatographic column: discover ODS column (250 mm×6 mm, 5 μm);
The mobile phase: Acetonitrile—0.1% H3PO4 water (13:87 v/v)
Velocity of flow: 1.0 ml/min
Detection Wavelength: 254 nm.
Column temperature: 30° C.

With `O=c1c2cc(O)c(O)cc2oc2cc([O-])c([C@@H]3O[C@H](CO)[C@@H](O)[C@H](O)[C@H]3O)c(O)c12.O=c1c2cc([O-])c(O)cc2oc2cc(O)c([C@@H]3O[C@H](CO)[C@@H](O)[C@H](O)[C@H]3O)c(O)c12.[Ca+2]` [Mangiferin calcium, mangiferin calcium] as the molecule, how does the “dissolves in 30 minutes” value ([1]; 50 mg powder in 50 ml distilled water) read?
Its value is “can dissolve”.

What about the “dissolves in 30 minutes” value ([1]; 100 mg powder in 50 ml distilled water) of the same molecule?
The value was “can not dissolve completely”.

And the water solubility ([1]; distilled water, shaken 30 second every 5 minutes, 30 minutes)?
The water solubility was “more than 1 mg/ml”.

What about the “improvement of GLU, TG, FFA, INS, Glucose infusion rate in diabetic rats” value ([2]; 10 mg/kg orally for 8 weeks) of the same molecule?
Its value is “significantly improves”.

What about the Glucose infusion rate ([2]; 10 mg/kg orally for 8 weeks) of the same molecule?
Its Glucose infusion rate is 17.56 ± 3.45 mg/kg · min.

What about the Glucose infusion rate ([2]; 20 mg/kg orally for 8 weeks) of the same molecule?
The Glucose infusion rate was 24.37 ± 3.75 mg/kg · min.

And the Glucose infusion rate ([2]; 40 mg/kg orally for 8 weeks)?
The Glucose infusion rate was 26.36 ± 3.58 mg/kg · min.

And the FFA ([2]; 10 mg/kg orally for 8 weeks)?
Its FFA is 1.54 ± 0.23 µmol/L.

And the GLU ([2]; 10 mg/kg orally for 8 weeks)?
The GLU was 8.01 ± 0.32 mmol/L.

And the INS ([2]; 10 mg/kg orally for 8 weeks)?
Its INS is 27.63 ± 3.46 μ IU/ml.

What about the TG ([2]; 10 mg/kg orally for 8 weeks) of the same molecule?
The TG was 2.49 ± 0.18 mmol/L.

What about the FFA ([2]; 20 mg/kg orally for 8 weeks) of the same molecule?
The FFA was 1.28 ± 0.14 µmol/L.

And the GLU ([2]; 20 mg/kg orally for 8 weeks)?
The GLU was 7.31 ± 0.22 mmol/L.

What about the INS ([2]; 20 mg/kg orally for 8 weeks) of the same molecule?
The INS was 23.57 ± 3.68 μ IU/ml.

And the TG ([2]; 20 mg/kg orally for 8 weeks)?
Its TG is 1.93 ± 0.36 mmol/L.

What about the FFA ([2]; 40 mg/kg orally for 8 weeks) of the same molecule?
Its FFA is 1.13 ± 0.18 µmol/L.

And the GLU ([2]; 40 mg/kg orally for 8 weeks)?
Its GLU is 6.91 ± 2.02 mmol/L.

What about the INS ([2]; 40 mg/kg orally for 8 weeks) of the same molecule?
Its INS is 20.53 ± 4.42 μ IU/ml.

What about the TG ([2]; 40 mg/kg orally for 8 weeks) of the same molecule?
Its TG is 1.49 ± 0.28 mmol/L.

What about the GLU ([3]; 10 mg/kg orally for 30 days) of the same molecule?
The GLU was 24.06 ± 1.57 mmol/L.

And the HDL ([3]; 10 mg/kg orally for 30 days)?
The HDL was 0.81 ± 0.07 mmol/L.

And the INS ([3]; 10 mg/kg orally for 30 days)?
The INS was 27.48 ± 8.70 μ IU/ml.

And the LDL ([3]; 10 mg/kg orally for 30 days)?
The LDL was 1.26 ± 0.18 mmol/L.

And the TC ([3]; 10 mg/kg orally for 30 days)?
Its TC is 2.43 ± 0.21 mmol/L.

What about the TG ([3]; 10 mg/kg orally for 30 days) of the same molecule?
Its TG is 1.79 ± 0.22 mmol/L.

And the “improvement of TC, HDL and LDL in diabetic GK rats” value ([3]; 10 mg/kg orally for 30 days)?
The value was “significantly improves”.

And the GLU ([3]; 20 mg/kg orally for 30 days)?
Its GLU is 23.34 ± 1.67 mmol/L.

And the HDL ([3]; 20 mg/kg orally for 30 days)?
Its HDL is 0.80 ± 0.10 mmol/L.

What about the INS ([3]; 20 mg/kg orally for 30 days) of the same molecule?
Its INS is 20.45 ± 6.36 μ IU/ml.

And the LDL ([3]; 20 mg/kg orally for 30 days)?
Its LDL is 1.31 ± 0.10 mmol/L.

What about the TC ([3]; 20 mg/kg orally for 30 days) of the same molecule?
Its TC is 2.47 ± 0.08 mmol/L.

What about the TG ([3]; 20 mg/kg orally for 30 days) of the same molecule?
Its TG is 1.60 ± 0.41 mmol/L.

What about the “improvement of GLU, TC, TG, HDL and LDL and INS in diabetic GK rats” value ([3]; 20 mg/kg orally for 30 days) of the same molecule?
Its value is “significantly improves”.

And the GLU ([3]; 40 mg/kg orally for 30 days)?
Its GLU is 23.17 ± 1.58 mmol/L.

What about the HDL ([3]; 40 mg/kg orally for 30 days) of the same molecule?
The HDL was 0.80 ± 0.09 mmol/L.

And the INS ([3]; 40 mg/kg orally for 30 days)?
The INS was 16.79 ± 5.37 μ IU/ml.

And the LDL ([3]; 40 mg/kg orally for 30 days)?
Its LDL is 1.37 ± 0.11 mmol/L.

What about the TC ([3]; 40 mg/kg orally for 30 days) of the same molecule?
The TC was 2.49 ± 0.07 mmol/L.

And the TG ([3]; 40 mg/kg orally for 30 days)?
The TG was 1.57 ± 0.39 mmol/L.

What about the “stability of water solution” value [4] of the same molecule?
Its value is “unstable”.

What about the bioavailability ([5]; compared with mangiferin) of the same molecule?
The bioavailability was “better than mangiferin”.

What about the Cmax ([5]; serum) of the same molecule?
The Cmax was 48.3 ± 0.6 µg/mL.

And the T1/2β ([5]; serum)?
Its T1/2β is 61.4 ± 7.7 min.
